These results are taken from patent US6689383B1, “Chromium-histidine complexes as nutrient supplements” (The United States of America as represented by the …, priority 1999, dated 2004).

Read-outs that look alike come from different tables or passages of the source. Marks after values point to notes of the source that are not given here.

The nature of data set [1]: Chromium absorption in humans based on urinary chromium excretion. How it is done: Experiments were carried out to investigate the efficacy of chromium-histidine complexes in the absorption process. Chromium was administered in the formulations listed in Table 1 at dosages of 200 μg chromium to three adult males and three females, and absorption during the first 24 hours was measured based on urinary chromium excretion.

The next data set in a line: Water solubility. In kind it is physicochemical.
A further data set is described as follows: Stability. To be noted: aqueous solutions. In kind it is physicochemical.
A further data set relates to hemoglobin A1C. To be noted: type 2 diabetes, cited from earlier work.
Another data set has as its system steroid-induced diabetes. To be noted: 600 μg of chromium per day for 2 weeks followed by daily maintenance dose of 200 μg; cited from earlier work.
The subject of a further data set is insulin sensitivity. To be noted: 1000 μg daily of supplemental chromium, obese subjects with family history of diabetes; cited from earlier work.
For data set [2] the following is noted: chromium picolinate: at intakes up to 1000 μg per day; cited from earlier work.

Regarding `N[C@@H](Cc1c[nH]cn1)C(=O)O.[Cr]` [Chromium histidine], in data set [1] (200 μg chromium, first 24 hours, urinary chromium excretion), the “Absorption level relative to chromium picolinate” value is “almost twice”. Moreover, the Water solubility result in “Water solubility” is “water-soluble”. Also, the Stability entry in “Stability” is recorded as “stable in aqueous solutions”.
Take Chromium picolinate: the “Hemoglobin A1C” value in the data set on hemoglobin A1C (200 μg chromium per day for 4 months) was 7.5±0.2%; in the data set with hemoglobin A1C (1000 μg of chromium per day for 4 months) it was 6.6±0.1%. In addition, the “People whose steroid-induced diabetes improved to acceptable levels” value in the data set on steroid-induced diabetes is given as 47 of 50. In addition, the Insulin sensitivity entry in the data set with insulin sensitivity is “improved”.
Consider `[Cl][Cr]([Cl])[Cl]` [Chromium chloride], for which, in data set [1] (first 24 hours following intake of 200 μg of chromium, based on urinary chromium excretion, 3 adult males and 3 females), the “μGRAMS ABSORBED (chromium absorbed)” value is 0.44 ± 0.07^b μGRAMS. Moreover, in data set [2], the Absorption of chromium entry is “approximately 0.4%”.
